Where two headings read alike, the source gives them in different places.

Holding throughout (assay type): biochemical
In one assay the target is SRC (Homo sapiens, UniProt P12931). The assay is described as follows: Inhibition of a panel of kinases, in vitro HotSpot kinase assay: SRC. How it is done: (§1) The degree of inhibition of a panel of kinases is determined using the in vitro HotSpot kinase assay (purified enzymes, ^33P-ATP, an appropriate substrate and 1 μM ATP).
The next assay deals with T1, ITK (Homo sapiens, UniProt Q08881).
T1 sequence (Q08881 1-620): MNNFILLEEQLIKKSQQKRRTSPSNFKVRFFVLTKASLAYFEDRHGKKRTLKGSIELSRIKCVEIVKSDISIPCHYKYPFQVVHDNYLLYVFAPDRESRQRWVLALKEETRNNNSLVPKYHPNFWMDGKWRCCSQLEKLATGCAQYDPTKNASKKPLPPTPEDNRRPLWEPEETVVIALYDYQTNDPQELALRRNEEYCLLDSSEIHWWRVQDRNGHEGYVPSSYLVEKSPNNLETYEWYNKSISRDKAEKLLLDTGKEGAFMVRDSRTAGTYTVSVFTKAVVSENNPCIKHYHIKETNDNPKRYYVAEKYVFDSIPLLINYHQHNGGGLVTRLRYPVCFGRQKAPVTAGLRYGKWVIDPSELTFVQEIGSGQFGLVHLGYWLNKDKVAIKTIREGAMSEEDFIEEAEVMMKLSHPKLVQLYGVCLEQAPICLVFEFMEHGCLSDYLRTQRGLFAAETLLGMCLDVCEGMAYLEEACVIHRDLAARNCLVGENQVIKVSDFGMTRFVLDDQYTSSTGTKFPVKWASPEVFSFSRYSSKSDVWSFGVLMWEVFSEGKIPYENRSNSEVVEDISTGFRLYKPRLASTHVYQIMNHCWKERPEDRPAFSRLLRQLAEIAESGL
Kind of assay: Inhibition of a panel of kinases, in vitro HotSpot kinase assay: ITK. Here is the method: as §1

In a further assay the target is T2, JAK3 (Homo sapiens, UniProt P52333).
T2 sequence (P52333 1-1124): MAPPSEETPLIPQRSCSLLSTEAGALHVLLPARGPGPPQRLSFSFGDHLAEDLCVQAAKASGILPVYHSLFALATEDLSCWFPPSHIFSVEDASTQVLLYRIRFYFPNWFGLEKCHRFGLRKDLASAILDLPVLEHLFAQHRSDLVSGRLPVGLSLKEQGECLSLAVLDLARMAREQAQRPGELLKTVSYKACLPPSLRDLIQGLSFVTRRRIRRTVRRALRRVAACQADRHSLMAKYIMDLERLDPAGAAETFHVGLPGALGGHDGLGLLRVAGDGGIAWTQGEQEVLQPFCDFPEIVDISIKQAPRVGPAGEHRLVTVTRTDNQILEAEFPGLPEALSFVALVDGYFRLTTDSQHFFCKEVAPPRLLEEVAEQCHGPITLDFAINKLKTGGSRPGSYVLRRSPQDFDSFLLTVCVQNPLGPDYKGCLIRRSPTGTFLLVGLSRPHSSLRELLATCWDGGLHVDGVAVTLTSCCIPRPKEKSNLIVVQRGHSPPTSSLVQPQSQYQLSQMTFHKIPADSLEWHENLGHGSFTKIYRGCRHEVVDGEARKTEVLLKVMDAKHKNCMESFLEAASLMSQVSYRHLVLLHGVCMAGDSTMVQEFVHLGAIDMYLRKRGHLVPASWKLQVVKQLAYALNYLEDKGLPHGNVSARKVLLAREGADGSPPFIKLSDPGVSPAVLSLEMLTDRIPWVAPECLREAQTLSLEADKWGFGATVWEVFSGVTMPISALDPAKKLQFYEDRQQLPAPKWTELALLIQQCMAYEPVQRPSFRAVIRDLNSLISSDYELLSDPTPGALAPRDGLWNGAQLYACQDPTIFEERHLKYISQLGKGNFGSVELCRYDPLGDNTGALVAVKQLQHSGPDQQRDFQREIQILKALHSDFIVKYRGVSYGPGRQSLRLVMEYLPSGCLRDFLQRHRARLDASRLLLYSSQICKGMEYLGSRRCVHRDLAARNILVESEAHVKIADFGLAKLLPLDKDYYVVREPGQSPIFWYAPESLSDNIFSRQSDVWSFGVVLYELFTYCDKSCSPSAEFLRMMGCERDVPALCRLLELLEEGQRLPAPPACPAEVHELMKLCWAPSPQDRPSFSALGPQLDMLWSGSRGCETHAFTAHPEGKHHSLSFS
The assay is described as follows: Inhibition of a panel of kinases, in vitro HotSpot kinase assay: JAK3. The settings on record: read-out: IC50 JAK3.

In a further assay the target is EGFR (Homo sapiens, UniProt P00533). The assay is described as follows: Inhibition of a panel of kinases, in vitro HotSpot kinase assay: EGFR. How it is done:
as §1

Another assay has as its target LCK (Homo sapiens, UniProt P06239). Kind of assay: Inhibition of a panel of kinases, in vitro HotSpot kinase assay: LCK. Conditions: read-out: IC50 LCK.
Where [1] appears, read: Table 13, A compounds, 1 μM ATP.

EGFR, sequence (P00533 25-1210): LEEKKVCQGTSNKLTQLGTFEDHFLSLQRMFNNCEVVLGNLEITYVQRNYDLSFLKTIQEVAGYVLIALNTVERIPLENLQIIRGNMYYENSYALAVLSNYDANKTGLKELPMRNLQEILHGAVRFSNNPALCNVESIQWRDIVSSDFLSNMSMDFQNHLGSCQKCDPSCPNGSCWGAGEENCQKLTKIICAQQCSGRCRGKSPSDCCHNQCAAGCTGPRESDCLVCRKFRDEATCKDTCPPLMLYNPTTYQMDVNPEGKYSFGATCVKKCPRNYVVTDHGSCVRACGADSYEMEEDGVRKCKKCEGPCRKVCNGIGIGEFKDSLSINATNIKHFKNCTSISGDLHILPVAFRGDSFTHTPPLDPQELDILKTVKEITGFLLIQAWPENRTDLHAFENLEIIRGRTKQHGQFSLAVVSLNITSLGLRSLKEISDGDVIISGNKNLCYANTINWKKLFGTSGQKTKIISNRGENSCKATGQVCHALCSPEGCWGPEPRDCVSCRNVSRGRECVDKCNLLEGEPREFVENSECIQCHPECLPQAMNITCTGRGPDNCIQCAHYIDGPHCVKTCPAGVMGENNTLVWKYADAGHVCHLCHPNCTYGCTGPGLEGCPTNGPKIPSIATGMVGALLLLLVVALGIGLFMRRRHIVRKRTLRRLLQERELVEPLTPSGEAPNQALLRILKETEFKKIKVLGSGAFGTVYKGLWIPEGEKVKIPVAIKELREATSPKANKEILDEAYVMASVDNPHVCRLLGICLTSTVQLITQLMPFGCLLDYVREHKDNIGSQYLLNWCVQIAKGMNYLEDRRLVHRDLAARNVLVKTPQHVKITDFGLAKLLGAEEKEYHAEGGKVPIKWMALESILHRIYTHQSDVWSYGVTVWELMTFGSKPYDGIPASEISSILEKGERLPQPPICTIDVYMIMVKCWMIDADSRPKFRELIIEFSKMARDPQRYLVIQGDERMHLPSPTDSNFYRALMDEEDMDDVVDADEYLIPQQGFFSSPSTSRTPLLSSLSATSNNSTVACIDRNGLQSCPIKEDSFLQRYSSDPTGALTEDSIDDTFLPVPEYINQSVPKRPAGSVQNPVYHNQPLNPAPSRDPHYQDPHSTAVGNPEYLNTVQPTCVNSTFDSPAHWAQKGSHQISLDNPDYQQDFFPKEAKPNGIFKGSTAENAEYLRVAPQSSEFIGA
LCK, sequence (P06239 whole entry): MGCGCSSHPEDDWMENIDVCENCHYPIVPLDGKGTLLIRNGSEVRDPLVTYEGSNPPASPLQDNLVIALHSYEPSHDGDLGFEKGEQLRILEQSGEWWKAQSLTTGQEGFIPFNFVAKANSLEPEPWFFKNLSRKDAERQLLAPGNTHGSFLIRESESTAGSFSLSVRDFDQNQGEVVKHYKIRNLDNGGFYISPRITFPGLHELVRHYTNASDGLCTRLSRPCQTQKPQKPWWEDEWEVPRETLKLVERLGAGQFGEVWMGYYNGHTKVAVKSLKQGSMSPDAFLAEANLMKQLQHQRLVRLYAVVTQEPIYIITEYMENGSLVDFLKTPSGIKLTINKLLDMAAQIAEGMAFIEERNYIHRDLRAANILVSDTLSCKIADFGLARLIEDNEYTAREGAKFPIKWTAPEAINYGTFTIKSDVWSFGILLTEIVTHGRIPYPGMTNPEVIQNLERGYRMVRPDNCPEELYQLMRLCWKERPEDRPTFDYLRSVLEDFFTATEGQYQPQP
SRC, sequence (P12931 whole entry): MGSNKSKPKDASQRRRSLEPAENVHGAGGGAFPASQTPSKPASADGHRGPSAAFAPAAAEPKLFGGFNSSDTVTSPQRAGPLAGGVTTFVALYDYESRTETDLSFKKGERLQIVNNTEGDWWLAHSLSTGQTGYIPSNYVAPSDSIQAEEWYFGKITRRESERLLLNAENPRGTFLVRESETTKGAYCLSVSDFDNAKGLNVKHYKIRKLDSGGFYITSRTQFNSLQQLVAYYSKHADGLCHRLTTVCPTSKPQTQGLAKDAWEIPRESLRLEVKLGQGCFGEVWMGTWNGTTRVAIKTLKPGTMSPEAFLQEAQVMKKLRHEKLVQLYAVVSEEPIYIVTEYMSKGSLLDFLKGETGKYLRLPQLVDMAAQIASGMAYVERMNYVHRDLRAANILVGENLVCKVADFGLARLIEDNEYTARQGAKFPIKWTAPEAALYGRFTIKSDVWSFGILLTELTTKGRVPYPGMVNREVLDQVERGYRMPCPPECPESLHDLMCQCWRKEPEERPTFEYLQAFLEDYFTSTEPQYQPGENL

With `C=CC(=O)N1CC[C@@H](N(C)c2cnc(C(N)=O)c(Nc3ccc(C4CCN(C5CCCC5)CC4)cc3)n2)C1` [Example E-109, (R)-5-((1-acryloylpyrrolidin-3-yl)(methyl)amino)-3-(4-(1-cyclopentylpiperidin-4-yl)phenylamino)pyrazine-2-carboxamide], the IC50 at SRC (E compounds, Table 17) is 10 to 100 nM; at ITK (E compounds, Table 17) it was at most 10 nM; at JAK3 (E compounds, Table 17), below 10 nM; on EGFR (E compounds, Table 17) it was 10 to 100 nM; on LCK (E compounds, Table 17), 100 to 1000 nM.

In the case of `C=CC(=O)N1CC[C@@H](N(C)c2cnc(C(N)=O)c(Nc3ccc(C4CCN(C5CC5)CC4)cc3)n2)C1` [Example E-121, (R)-5-((1-acryloylpyrrolidin-3-yl)(methyl)amino)-3-(4-(1-cyclopropylpiperidin-4-yl)phenylamino)pyrazine-2-carboxamide], the IC50 at SRC (E compounds, Table 17) was 10 to 100 nM; against ITK (E compounds, Table 17) it was at most 10 nM; at JAK3 (E compounds, Table 17) it was below 10 nM; on EGFR (E compounds, Table 17) it was at most 10 nM; on LCK (E compounds, Table 17) it was 10 to 100 nM.

As to `C[C@@H]1[C@H](NC(=O)c2cccc(C(C)(C)O)c2)CCCN1c1cnc(C(N)=O)c(Nc2cnn(C)c2)n1` [Example E-145, 5-((2R,3R)-3-(3-(2-hydroxypropan-2-yl)benzamido)-2-methylpiperidin-1-yl)-3-((1-methyl-1H-pyrazol-4-yl)amino)pyrazine-2-carboxamide], the half-inhibitory concentration (IC50) against SRC (E compounds, Table 17) was 10 to 100 nM; against ITK (E compounds, Table 17), 100 to 1000 nM; at JAK3 (E compounds, Table 17) it was 100 to 1000 nM; against EGFR (E compounds, Table 17) it was 100 to 1000 nM; at LCK (E compounds, Table 17) it was 10 to 100 nM.

For the compound `C[C@@H]1[C@H](NC(=O)c2ccc(C3CC3)cc2F)CCCN1c1cnc(C(N)=O)c(Nc2ccc(C3(C)CCN(C4CCCC4)CC3)cc2)n1` [Example A-121, 3-{[4-(1-cyclopentyl-4-methylpiperidin-4-yl)phenyl]amino}-5-[(2R,3R)-3-(4-cyclopropyl-2-fluorobenzamido)-2-methylpiperidin-1-yl]pyrazine-2-carboxamide], the IC50 at SRC (setting [1]) was at most 10 nM; at ITK (setting [1]) it was 10 to 100 nM; on JAK3 (setting [1]), 100 to 1000 nM; against EGFR (setting [1]), 10 to 100 nM; on LCK (setting [1]), below 10 nM.

In the case of `C=CC(=O)N1CCC[C@@H](Nc2nnc(C(N)=O)c(Nc3cc(C)ns3)n2)C1` [Example E-11, (R)-3-(1-acryloylpiperidin-3-ylamino)-5-(3-methylisothiazol-5-ylamino)-1,2,4-triazine-6-carboxamide], the half-maximal inhibitory concentration (IC50) on SRC (E compounds, Table 17) was 10 to 100 nM; at ITK (E compounds, Table 17) it was at most 10 nM; on JAK3 (E compounds, Table 17), below 10 nM; against EGFR (E compounds, Table 17), at most 10 nM; at LCK (E compounds, Table 17), 10 to 100 nM.

Consider `Cc1nc(-c2ccc(C(=O)N[C@@H]3CCCN(c4cnc(C(N)=O)c(Nc5cnn(C)c5)n4)[C@@H]3C)cc2)cs1` [Example E-155, 3-((1-methyl-1H-pyrazol-4-yl)amino)-5-((2R,3R)-2-methyl-3-(4-(2-methylthiazol-4-yl)benzamido)piperidin-1-yl)pyrazine-2-carboxamide], for which the IC50 against SRC (E compounds, Table 17) fell in the range of 10 to 100 nM; at ITK (E compounds, Table 17), 100 to 1000 nM; on JAK3 (E compounds, Table 17), 100 to 1000 nM; against EGFR (E compounds, Table 17) it was 100 to 1000 nM; on LCK (E compounds, Table 17) it was 10 to 100 nM.

Turning to `C[C@@H]1[C@H](NC(=O)c2cc(C(C)(C)C)nn2C)CCCN1c1cnc(C(N)=O)c(Nc2cnn(C)c2)n1` [Example E-146, 5-((2R,3R)-3-(3-(tert-butyl)-1-methyl-1H-pyrazole-5-carboxamido)-2-methylpiperidin-1-yl)-3-((1-methyl-1H-pyrazol-4-yl)amino)pyrazine-2-carboxamide], the IC50 against SRC (E compounds, Table 17) fell in the range of 10 to 100 nM; on ITK (E compounds, Table 17), 100 to 1000 nM; at JAK3 (E compounds, Table 17), 1000 to 10000 nM; against EGFR (E compounds, Table 17) it was 1000 to 10000 nM; at LCK (E compounds, Table 17) it was 10 to 100 nM.

For `C[C@@H]1[C@H](NC(=O)c2ccc(C3CC3)cc2F)CCCN1c1cnc(C(N)=O)c(Nc2ccc(C3(C)CCN(C4CC4)CC3)cc2)n1` [Example A-174, 5-[(2R,3R)-3-(4-cyclopropyl-2-fluorobenzamido)-2-methylpiperidin-1-yl]-3-{[4-(1-cyclopropyl-4-methylpiperidin-4-yl)phenyl]amino}pyrazine-2-carboxamide], the IC50 against SRC (setting [1]) fell in the range of 100 to 1000 nM; at ITK (setting [1]), 100 to 1000 nM; on JAK3 (setting [1]), 10 to 100 nM; against EGFR (setting [1]) it was 100 to 1000 nM; on LCK (setting [1]) it was 10 to 100 nM.

Consider `C=CC(=O)N1CCC[C@@H](Nc2nnc(C(N)=O)c(Nc3ccc(-c4ncco4)cc3)n2)C1` [Example E-40, (R)-3-(1-acryloylpiperidin-3-ylamino)-5-(4-(oxazol-2-yl)phenylamino)-1,2,4-triazine-6-carboxamide], for which the IC50 at SRC (E compounds, Table 17) is 100 to 1000 nM; against ITK (E compounds, Table 17) it was 10 to 100 nM; on JAK3 (E compounds, Table 17), below 10 nM; against EGFR (E compounds, Table 17), at most 10 nM; on LCK (E compounds, Table 17) it was 100 to 1000 nM.

Consider `C[C@@H]1[C@H](NC(=O)c2ccc(C3CC3)cc2F)CCCN1c1cnc(C(N)=O)c(Nc2ccc(C(=O)N3CCN(C)CC3)cc2)n1` [Example A-122, 5-[(2R,3R)-3-(4-cyclopropyl-2-fluorobenzamido)-2-methylpiperidin-1-yl]-3-{[4-(4-methylpiperazine-1-carbonyl)phenyl]amino}pyr-azine-2-carboxamide], for which the IC50 at SRC (setting [1]), on ITK (setting [1]), on JAK3 (setting [1]), against EGFR (setting [1]) and at LCK (setting [1]) was 100 to 1000 nM in each case.

Turning to `C[C@@H]1[C@H](NC(=O)c2ccc(C3CC3)nc2)CCCN1c1cnc(C(N)=O)c(Nc2cnn(C)c2)n1` [Example A-190, 5-((2R,3R)-3-(6-cyclopropylnicotinamido)-2-methylpiperidin-1-yl)-3-(1-methyl-1H-pyrazol-4-ylamino)pyr-azine-2-carboxamide], the IC50 is 10 to 100 nM against SRC (setting [1]); 100 to 1000 nM at ITK (setting [1]); 1000 to 10000 nM on JAK3 (setting [1]); 1000 to 10000 nM at EGFR (setting [1]); 100 to 1000 nM at LCK (setting [1]).

Turning to `C[C@@H]1[C@H](NC(=O)c2ccc(C3CC3)cc2F)CCCN1c1cnc(C(N)=O)c(Nc2ccc(CN3CCN(C)CC3)cc2)n1` [Example A-106, 5-[(2R,3R)-3-(4-cyclopropyl-2-fluorobenzamido)-2-methylpiperidin-1-yl]-3-({4-[(4-methylpiperazin-1-yl)meth-yl]phenyl}amino)pyrazine-2-carboxamide], the IC50 at SRC (setting [1]) lay within 100 to 1000 nM; at ITK (setting [1]) it was 100 to 1000 nM; on JAK3 (setting [1]), 100 to 1000 nM; against EGFR (setting [1]), 100 to 1000 nM; at LCK (setting [1]), 10 to 100 nM.

Regarding `CCC(O)(CC)c1ccc(C(=O)N[C@@H]2CCCN(c3cnc(C(N)=O)c(Nc4cnn(C)c4)n3)[C@@H]2C)cc1` [Example E-151, 5-((2R,3R)-3-(4-(3-hydroxypentan-3-yl)benzamido)-2-methylpiperidin-1-yl)-3-((1-methyl-1H-pyrazol-4-yl)amino)pyrazine-2-carboxamide], the IC50 against SRC (E compounds, Table 17) lay in the range of 10 to 100 nM; against ITK (E compounds, Table 17), 100 to 1000 nM; at JAK3 (E compounds, Table 17), 100 to 1000 nM; on EGFR (E compounds, Table 17), 100 to 1000 nM; at LCK (E compounds, Table 17) it was 100 to 1000 nM.

One may read the IC50 as the concentration at which inhibition is half-maximal.

The record behind these values is US20210070748A1, “INHIBITORS OF BRUTONS TYROSINE KINASE” (Pharmacyclics LLC, priority 2015, published 2021).
